Consider one molecule from patent US6482806B1, “Product of heat treatment of uronic acid, food, drink, or drug including the product” (Takara Shuzo Co., Ltd., priority 1996, dated 2002).

Assay [1] concerns human promyelocytic leukemia cells (HL-60) (ATCC CCL-240). Kind of assay: Apoptosis-inducing activity to HL-60 cells, microscope and trypan blue count (method of Example 7). Type of assay: cell-based. The note with it: 0.05 ml of aqueous solution (0.1 mg/ml) added, 16 hours. The procedure: Thus, HL-60 (ATCC CCL-240) were incubated in an RPMI 1640 medium (manufactured by Nissui) containing 10% of fetal calf serum (manufactured by Gibco) treated at 56° C. for 30 minutes and then suspended in an RPMI 1640 medium to make the cell concentration 2.5×10^5 cells/4.5 ml.
To 4.5 ml of this suspension was added 0.5 ml of the above-mentioned heat-treated pectin solution and the mixture was incubated at 37° C. for 16 hours in the presence of 5% of carbon dioxide. For the sake of confirmation, the same incubation as above was conducted except that 0.05 ml of an aqueous solution (0.1 mg/ml) of actinomycin D (manufactured by Sigma) which was known as an apoptosis-inducing reagent and 0.45 ml of a physiological saline solution were used instead of the above-mentioned heat-treated pectin solution.
Incidentally, in the control where the cells to which 0.5 ml of a physiological saline solution was added were incubated, such phenomena were not observed.
Further, to the cell suspension was added twice as much by volume of a 0.4% aqueous solution of trypan blue and an observation was conducted under an optical microscope whereby trypan blue was excreted and colorless cells and blue-colored cells were counted as viable and dead cells, respectively.

For assay [2], the system named is Human promyelocytic leukemia cells HL-60 (ATCC CRL-1964). Kind of assay: Apoptosis induction in HL-60 cells, optical microscope (Example 1). The assay is classed as cell-based. As to conditions: 0.1 ml of aqueous solution (0.1 mg/ml) added, 16 hours. The procedure:
Human promyelocytic leukemia cells HL-60 (ATCC CRL-1964) were incubated in an RPMI 1640 medium (manufactured by Nissui) containing 10% of fetal calf serum (manufactured by Gibco) treated at 56° C. for 30 minutes and then suspended in an ASF 104 medium (manufactured by Ajinomoto) to make the cell concentration 5×10^5cells/9 ml.
To this suspension was added 1 ml of the heat-treated pectin solution and the mixture was incubated at 37° C. for 16 hours in the presence of 5% of carbon dioxide. For the sake of confirmation, the same incubation as above was conducted except that 0.1 ml of aqueous solution (0.1 mg/ml) of actinomycin D (manufactured by Sigma) which was known as an apoptosis-inducing reagent and 0.9 ml of a physiological saline solution were used instead of the above-mentioned pectin solution.
Incidentally, in the control where the cells to which 1 ml of physiological saline solution was added were incubated, such phenomena were not observed.

Each structure is given as a SMILES string. *1 amine or outer side, *2 acyl side, *3 side chain or, on linkers, in order; H or OH if unused. Where a SMILES comes first, the peptide text is derived from it. Bridges are numbered along the chain shown (N, C = ends). Roman numbers before positions name the chains, in order. [ ]: non-standard residue; d: D form. Actinocin(9to1) = Cc1c2oc3c(C)ccc(C(=O)[*:1])c3nc-2c(C(=O)[*:2])c(N)c1=O; NMeV = CN[C@H](C(=O)O)C(C)C; Sar = CNCC(=O)O

On to `Cc1c2oc3c(C)ccc(C(=O)N[C@@H]4C(=O)N[C@H](C(C)C)C(=O)N5CCC[C@H]5C(=O)N(C)CC(=O)N(C)[C@@H](C(C)C)C(=O)O[C@@H]4C)c3nc-2c(C(=O)N[C@@H]2C(=O)N[C@H](C(C)C)C(=O)N3CCC[C@H]3C(=O)N(C)CC(=O)N(C)[C@@H](C(C)C)C(=O)O[C@@H]2C)c(N)c1=O` [actinomycin D] (I: T[dV]P[Sar][NMeV] / II: T[dV]P[Sar][NMeV]; ester I:1-I:C, II:1-II:C; linker I:N-II:N via Actinocin(9to1)), for which the “condensation of nuclei, contraction of cells and production of apoptotic body” value in assay [1] was “condensation of nuclei, contraction of cells and production of apoptotic body were confirmed”; in assay [2], “condensation of nuclei, contraction of cells and production of apoptotic body were confirmed”.
